Among the data in PubChem BioAssay (NCI) are TGI and GI50 values, retold here.

Common to all, as to experiment: NCI tumour cell line growth inhibition, 48 h
For assay [1], the system named is A498 renal.
In assay [2] the test system is CCRF-CEM leukemia.
Assay [3] has as its system COLO 205 colon.
Assay [4] has as its system DU-145 prostate.
Assay [5] concerns EKVX NSCLC.
Assay [6] deals with HCC-2998 colon.
In assay [7] the test system is NCI-H23 lung.
Assay [8] has as its system NCI-H460 lung.
In assay [9] the test system is NCI-H522 lung.
In assay [10] the test system is OVCAR-8 ovarian.
For assay [11], the system named is SF-295 CNS.
Assay [12] relates to SK-MEL-5 melanoma.
Assay [13] deals with SK-OV-3 ovarian.

Where “and” joins values, the source holds several entries; their conditions need not be identical. Equal values may be shown once.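 Five compound concentrations were applied to cells in 96-well plates for 48 hours; endpoints were derived by simple linear interpolation of the resulting dose-response curve. The concentration for 50% growth inhibition is given as GI50. The concentration for full growth arrest is given as TGI.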

As for `CC(=O)NC(c1nc2cc(C)c(C)cc2[nH]1)c1nc2cc(C)c(C)cc2[nH]1`, the TGI in [1] was 35.4 µM; in assay [2], 37 µM; in assay [3], 43.4 µM; in assay [4], 57.7 µM; in [5], 84.8 µM; in assay [6], 34.6 µM. The TGI in assay [7] was above 100 µM; in [8], 32.8 µM; in [9], 18 µM; in assay [10], 47.5 µM; in [11], 49.1 µM; in assay [12], 32 µM. The compound further gave a TGI in assay [13] of 71.9 µM.

For the compound `NC(=O)CCC(N=C(N)c1csc(C2OC(CO)C(O)C2O)n1)C(=O)O` (stereo not drawn), the TGI in assay [1], in [2], in assay [3], in assay [5], in [6] and in assay [7] was above 100 µM each time. The TGI in assay [9], in [10], in assay [11], in assay [12] and in [13] was above 100 µM in each case.

For `COC1C=COC2(C)Oc3c(C)c(O)c4c(O)c(c(/C=N/N5CCN(N)CC5)c(O)c4c3C2=O)NC(=O)C(C)=CC=CC(C)C(O)C(C)C(O)C(C)C(OC(C)=O)C1C` (stereo not drawn), the TGI in assay [1] was above 100 µM; in assay [2] it was 47.9 µM; in assay [3], above 100 µM; in [5], above 100 µM; in [6] it was above 100 µM; in assay [7], above 100 µM. Further, the TGI in assay [9] is 78.2 µM; in assay [10] it was above 100 µM; in assay [11], above 100 µM; in assay [12] it was above 100 µM; in assay [13], above 100 µM.

On to `O=S(=O)(O)c1ccc(N=Nc2c(O)ccc3cc(Br)ccc23)cc1`, for which the TGI in [1], in assay [2], in [3], in [4], in assay [5] and in assay [7] was above 100 µM each time. Besides, the TGI in assay [9], in assay [10], in [11], in assay [12] and in assay [13] was above 100 µM each time.

With `COc1cccc(/C=N/[N-]C(N)=O)c1[O-].[Ni+2].[OH3+].c1ccc(-c2ccccn2)nc1`, the TGI in [2], in assay [3], in [5], in assay [6], in [7] and in [8] was above 100 µM throughout. Also, the TGI in [9], in [10], in assay [11], in assay [12] and in assay [13] was above 100 µM each time.

`COc1cc(OC)c(/C=C\c2cc(/C=C/c3c(OC)cc(OC)cc3OC)c3ccccc3[n+]2C)c(OC)c1`: the TGI stood at 14 µM in assay [1]; 6.1 µM in [3]; 20.9 µM in [4]; 11.4 µM in assay [5]; 14.5 µM in assay [6]; 9.25 µM in assay [7]. For the same compound, the TGI was 8.92 µM in assay [8]; 7.58 µM in assay [9]; 5.34 µM in assay [10]; 10.9 µM in assay [11]; 2 µM in assay [12]; above 48 µM in [13].

For `S=C1CC(c2ccccc2)Sc2ccccc2N1` (stereo not drawn), the TGI in assay [2], in [3], in assay [4], in [5], in assay [7] and in assay [8] was above 100 µM throughout. Besides, the TGI in assay [9], in assay [10], in assay [11], in [12] and in assay [13] was above 100 µM in each case.

Regarding `[O-][n+]1ccccc1S`, the TGI is above 100 µM in [1]; 1.7 µM in [3]; 46.8 µM in assay [4]; above 100 µM in assay [5]; above 100 µM in [6]; above 100 µM in [7]. The TGI was 5.21 µM in assay [8]; 5.14 µM in assay [9]; above 100 µM in assay [10]; 9.51 µM in assay [11]; 30.9 µM in [12]; above 100 µM in assay [13]. The GI50 in assay [4] was 3.48 µM.

As to `CNC(=O)SCC(N)C(=O)O` (stereo not drawn), the TGI in assay [1], in assay [2], in assay [3], in assay [5], in assay [6] and in assay [7] was above 100 µM each time. The TGI in assay [8], in [9], in assay [10], in [11], in assay [12] and in assay [13] was above 100 µM each time.

Turning to `CCC(=O)c1ccc2[nH]c3c(C)c4c(=O)cc(C)[nH]c4c(C)c3c2c1`, the TGI in assay [1], in assay [2], in [3], in assay [4], in assay [5] and in assay [6] was above 100 µM throughout. The TGI in assay [7], in assay [8], in assay [9], in assay [10], in [11] and in assay [12] was above 100 µM in each case.

Take `OC1CCOc2ccccc21` (stereo not drawn): the TGI in assay [2], in assay [3], in [5], in assay [6], in assay [7] and in assay [8] was above 100 µM in each case. Besides, the TGI in assay [9], in assay [10], in assay [12] and in assay [13] was above 100 µM each time.

`CC(=O)NC(CCC(=O)C=[N+]=N)C(=O)O` (stereo not drawn): the TGI in assay [1], in assay [2], in [3], in assay [4], in [5] and in assay [6] was above 100 µM each time. The TGI in assay [7], in [8], in assay [9], in assay [10], in [11] and in assay [12] was above 100 µM each time. The compound further showed a TGI in assay [13] above 100 µM.

Turning to `CC1(C)Cc2c(C#N)c(N)c3c(c2CO1)C(=O)OC3=O`, the TGI in [2], in assay [3], in assay [5], in assay [6], in assay [7] and in assay [8] was above 100 µM in each case. The TGI in [9], in assay [10], in [12] and in assay [13] was above 100 µM in each case.

`CC1CCC2(C(=O)O)CCC3(C)C(=CCC4C5(C)CCC(O)C(C)(C)C5CCC43C)C2C1C` (stereo not drawn): the GI50 in assay [1] is 7.07 µM and 22.6 µM; in [2] it was 3.59 µM and 16.6 µM; in [9] it was 6.98 µM and 14.4 µM; in assay [12], 26.4 µM and 11.3 µM. Further, the TGI in assay [1] is 23.3 µM and 45.3 µM; in assay [2], 27.9 µM and > 100 µM; in assay [3], 26.3 µM and 28.3 µM; in assay [4], 21.6 µM; in [5], 23.2 µM and 28.6 µM; in assay [6] it was 21.8 µM and 23 µM. The TGI was 24.4 µM and 34.3 µM in assay [7]; 24.8 µM in [8]; 17.8 µM and 28.9 µM in assay [9]; 21 µM and 35.2 µM in assay [10]; 10.2 µM in [11]; 50.8 µM and 23.8 µM in assay [12]. In [13], the TGI is 27 µM and 35.1 µM.

For `C/C=C/C1=CC(=O)C(O)C1O` (stereo not drawn), the TGI in [1] is 16.7 µM; in assay [2], 103 µM; in [3], 51.8 µM; in assay [5], 148 µM; in assay [6], 82.5 µM; in assay [7] it was above 77.9 µM. Moreover, the TGI in assay [8] is 51.4 µM; in assay [9], 15.5 µM; in assay [10], 79.9 µM; in [11] it was 118 µM; in assay [12], 79.8 µM; in assay [13] it was 130 µM.

As for `C1=C(c2ccccc2)Nc2nnnn2C1c1ccccc1` (stereo not drawn), the TGI in assay [1] was above 100 µM; in [2], 0.0305 µM; in assay [3], above 100 µM; in assay [4], 72.5 µM; in assay [7] it was above 100 µM; in assay [8] it was above 100 µM. The TGI in [9] was 69.8 µM; in assay [10], above 100 µM; in assay [11], 88.5 µM; in [12], above 100 µM; in [13] it was above 100 µM.

Take `CCOC(=O)c1c(Cl)nc2ccccc2c1N=[N+]=[N-]`: the TGI is above 100 µM in assay [1]; above 100 µM in assay [2]; 36.1 µM in assay [3]; above 100 µM in [5]; above 100 µM in assay [6]; above 100 µM in [7]. Also, the TGI was 63.6 µM in assay [8]; 31.4 µM in [9]; above 100 µM in [11]; above 100 µM in [12]; above 100 µM in [13].

With `Cc1[nH]nc(N)c1C(N)=O`, the TGI in assay [1], in assay [2], in [3], in assay [5], in [6] and in assay [7] was above 100 µM in each case. In addition, the TGI in assay [9], in assay [10], in [11], in [12] and in [13] was above 100 µM throughout.

Consider `CC1CC[C@@]2(OC1)OC1CC3C4CCC5C[C@@H](OC6OC(CO)C(OC7OC(CO)C(O)C(OC8OC(CO)C(O)C(OC9OC(CO)C(O)C(O)C9O)C8O)C7OC7OC(CO)C(O)C(O)C7O)C(O)C6O)[C@H](O)C[C@]5(C)C4CC[C@]3(C)C1[C@@H]2C` (stereo partly drawn), for which the TGI in [1], in [2], in [3], in assay [4], in assay [5] and in [6] was above 80.5 µM in each case. Besides, the TGI in [7], in [8], in assay [10], in assay [11], in [12] and in assay [13] was above 80.5 µM throughout.

Consider `CCCC(=O)NC1CCc2cc(OC)c(OC)c(OC)c2-c2ccc(OC)c(=O)cc21` (stereo not drawn), for which the TGI was above 100 µM in [2]; 0.0114 µM in [4]; above 100 µM in assay [5]; above 100 µM in assay [8]; above 100 µM in assay [10]. In [5], the GI50 was above 100 µM.

As to `COC(=O)c1c(O)ccc2c1c1c(n2Cc2ccc(Cl)cc2Cl)C(=O)c2ccccc2C1=O`, the TGI in assay [1] was found to be 33.7 µM; in assay [2] it was 29.9 µM; in assay [3], 24.3 µM; in assay [4], 31.2 µM; in assay [5] it was 24.5 µM; in assay [6], 9.33 µM. Further, the TGI in assay [7] was 24.8 µM; in [8], 13 µM; in assay [9], 22 µM; in [10], 21.4 µM; in assay [11], 31.5 µM; in assay [12] it was 27.1 µM. Also, the TGI in assay [13] was 27.6 µM.
